# Data taken from PMC7355430, “Imunofan—RDKVYR Peptide—Stimulates Skin Cell Proliferation and Promotes Tissue Repair” (Molecules, 2020).
# “And” between values parts separate entries of the source, which are not always exact repeats. Identical values can stand only once. Peptide text beside a SMILES is read from it.
# Legend:
# [1] = Stability in human plasma; assay type: in vitro ADME; conditions: human plasma (EDTA)
# Experimental: A stability test in plasma was performed as previously described. Blood was collected from healthy anonymous donors and EDTA was then used as an anticoagulant. The plasma was aliquoted and incubated with IM peptide for 1, 2, 3, 6, and 24 h at 37 °C, at a final concentration of 300 µM. The analyses were performed by HPLC applying the conditions specified above.
# For calculations, peak areas were compared to a calibration curve calculated by LC solution Software (Shimadzu, Kyoto, Japan).
# [2] = tested on: dendritic cells (DC); test: Dendritic cell activation in PBMCs, flow cytometry; assay type: cell-based, human; conditions: 0.1 and 1.0 µg/mL, 48 h, active phenotype CD11+, CD80+, CD83+
# Experimental: Immunological tests were conducted on human peripheral blood mononuclear cells, isolated from “buffy coats” using a ficoll density gradient (Histopaque, Sigma-Aldrich, St. Louis, MO, USA). Buffy coats for were obtained from blood of healthy anonymous donors of the Regional Center of Blood Donation and Blood Therapy in Gdansk, Poland. After washing in PBS, erythrocyte lysis, and cell counting (cell counter, Bio-Rad), the PBMCs were seeded onto a 24-well culture plate at a density of 10^6 cells/1 mL of RPMI 1640 (Penicillin/Streptomycin, 10% FBS) per well. After cell resting for 24 h, cells were stimulated with IM peptide (0.1 µg/mL and 1.0 µg/mL) for the next 48 h under appropriate conditions (37 °C, 5% CO2). The untreated cells were used as a negative control, whereas cells stimulated with LPS (1 µg/mL) and PHA (2.5 µg/mL) were a positive control. After incubation, the PBMCs were collected, washed with PBS, counted and prepared for flow cytometry analysis. 10^4 cells/100 µl were stained with monoclonal, fluorochrome-conjugated antibodies (anti-CD3, -CD4, -CD8, -CD16, -CD56, -CD25, -CD69, -CD71, -HLA-DR, -CD11c, -CD80, and -CD83) and incubated for 30 min in RT in the dark. Stained cells were analyzed using a flow cytometer (LSRFortessa, BD, USA). All data are presented as percentages due to the application of hospital diagnostic laboratory standards for immune cells analyses.
# [3] = target: bovine albumin (Bos taurus, UniProt P02769); test: Affinity test on albumin-Sepharose column; assay type: binding; conditions: ammonium hydrogen carbonate pH 7.4, 2 h, 25 °C, elution 0.1% TFA, ESI-IT-TOF MS of fractions
# Chain of bovine albumin (P02769 25-607): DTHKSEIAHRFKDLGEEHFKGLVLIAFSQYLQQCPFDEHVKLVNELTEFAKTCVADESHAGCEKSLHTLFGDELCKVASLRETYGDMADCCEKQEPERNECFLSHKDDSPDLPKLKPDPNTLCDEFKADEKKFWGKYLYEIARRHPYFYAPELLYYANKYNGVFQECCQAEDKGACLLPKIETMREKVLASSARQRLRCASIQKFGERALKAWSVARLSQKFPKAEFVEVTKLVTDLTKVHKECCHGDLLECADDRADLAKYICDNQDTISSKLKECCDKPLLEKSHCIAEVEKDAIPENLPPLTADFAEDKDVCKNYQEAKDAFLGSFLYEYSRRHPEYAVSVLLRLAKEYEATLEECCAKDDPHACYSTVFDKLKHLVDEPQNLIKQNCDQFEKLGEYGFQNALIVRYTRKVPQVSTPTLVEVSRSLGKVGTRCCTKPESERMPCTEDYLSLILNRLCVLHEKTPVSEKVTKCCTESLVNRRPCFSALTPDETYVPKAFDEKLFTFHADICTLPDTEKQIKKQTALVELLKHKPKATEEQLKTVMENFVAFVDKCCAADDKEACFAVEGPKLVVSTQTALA
# Experimental: Immobilization of protein in a microcolumn, and affinity tests, were performed as described previously by Spodzieja et al.. The IM peptide was added onto an albumin-Sepharose column equilibrated in ammonium hydrogen carbonate, pH 7.4, and incubated for 2 h at 25 °C with gentle shaking. After 2 h, the column was washed with 100 mL of ammonium hydrogen carbonate, collecting the first and last milliliter of the solution (supernatant and last wash fraction). The albumin-peptide complex was dissociated by incubation for 15 min in 0.1% TFA, with gentle shaking. The procedure was repeated twice, and the elution fraction was collected each time. All fractions were lyophilized and analyzed by mass spectrometry (ESI-IT-TOF, Kyoto, Shimadzu Japan).
# [4] = tested on: C57BL/6 mice; test: Ear pinna injury, ear punch closure; assay type: in vivo, mouse
# Experimental: Experiments were performed on 8–12 week-old female BALB/c (24 mice in total) and C57BL/6 mice (36 mice in total). All mice originated from the Centre for Experimental Medicine of the Medical University of Białystok, Poland, and were kept in the animal facility at the Nencki Institute of Experimental Biology throughout the course of the study. After delivery to the Nencki Institute animal facility, mice rested for at least two weeks for acclimatization before starting the experiment. Experiments were approved by the First Local Ethics Committee in Warsaw (permit No. 491/2013 and 542/2018). Animal experimentation was performed in accordance with EU directive 2010/63/EU, and all experiments were undertaken in such a way as to minimize discomfort and the number of animals used in the study.
# Mice were placed individually in separate cages, weighed, and randomly divided into two groups within each mouse strain: The treatment group and the control group. Before the study all mice were randomly given numerical equivalents, and all experimenters performing further analysis were not aware of the experimental group and referred solely to those numbers. Similarly, vials containing IM (treatment) or saline (control) were encrypted and assigned to particular mice, so the person performing injections and ear photographs was not aware of mice background. Lastly, the person quantifying each ear hole closure was not aware of the group. Numerical equivalents of each mice were only decrypted at the end of the study. […]
# To monitor the progress of wound healing, ears were photographed on the day of the injury (day 0, before and right after pinna injury), and on days 7, 14, 21, 28, 35, and 42. […] Finally, the area of the wound hole was outlined by hand on digitized images as an overlay, and the hole areas in the ears were evaluated using computer-assisted image analysis (ImageJ Software). […] The final number of analyzed ears was 23 per group on day 42. […] The final number of analyzed ears on day 42 was 32 in the control group and 16 in the treatment group.
compound,measurement,setting,value
"CC(C)[C@H](NC(=O)[C@H](CCCCN)NC(=O)[C@H](CC(=O)O)NC(=O)[C@@H](N)CCCNC(=N)N)C(=O)N[C@@H](Cc1ccc(O)cc1)C(=O)N[C@@H](CCCNC(=N)N)C(=O)O [IM, H-Arg-Asp-Lys-Val-Tyr-Arg-OH] (H-RDKVYR-OH)",signal of the IM peptide in plasma after 1 h,"[1]; 300 µM, 37 °C, 1 h, albumins removed with ethanol and centrifugation, HPLC C18, PDA, n=3 (Figure S1)",no longer seen
same,signal of the IM peptide in plasma at time point 0 h,"[1]; mixture without incubation, whole sample preparation (ethanol, centrifugation), HPLC (Figure S2)",barely any signal of peptide
same,activation of dendritic cells,[2],not activated
same,interaction with albumin,[3],interacted with bovine albumin
same,mean ear hole area,"[4]; C57BL/6, day 42 post-injury, 2 mm punch, s.c. 5.0 µg/g, 10 injections, mean ± SD, saline control 3.10 ± 0.74",1.67 ± 0.45 mm^2
same,ear hole closure,"[4]; C57BL/6, day 42 post-injury, s.c. 5.0 µg/g, 10 injections, mean ± SD, saline control 8.0% ± 36.8%",43.6% ± 13.9% and 44%
same,tissue repair in comparison to control,"[4]; C57BL/6, ear pinna injury, as summarised in the abstract",36%
